Results as given in PubChem BioAssay (NCI).
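Grown in 96-well plates, cells were treated for 48 hours with each compound at five concentrations. Insufficient inhibition: endpoint recorded as highest concentration tested. TGI: total growth inhibition.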

How the values were obtained:
Assay in all cases: DTP human tumour cell line panel, 48 h
NCI-H460 lung = tested on: NCI-H460 lung
OVCAR-5 ovarian = tested on: OVCAR-5 ovarian
SK-OV-3 ovarian = tested on: SK-OV-3 ovarian
HL-60(TB) leukemia = tested on: HL-60(TB) leukemia
OVCAR-3 ovarian = tested on: OVCAR-3 ovarian
SNB-75 CNS = tested on: SNB-75 CNS
MOLT-4 leukemia = tested on: MOLT-4 leukemia
SW-620 colon = tested on: SW-620 colon
RXF 393 renal = tested on: RXF 393 renal
LXFL 529 NSCLC = tested on: LXFL 529 NSCLC
SK-MEL-28 melanoma = tested on: SK-MEL-28 melanoma
SF-268 CNS = tested on: SF-268 CNS
TK-10 renal = tested on: TK-10 renal
786-0 renal = tested on: 786-0 renal
HCT-116 colon = tested on: HCT-116 colon
K-562 leukemia = tested on: K-562 leukemia
UO-31 renal = tested on: UO-31 renal
KM12 colon = tested on: KM12 colon
NCI-H23 lung = tested on: NCI-H23 lung
ACHN renal = tested on: ACHN renal
HOP-18 NSCLC = tested on: HOP-18 NSCLC
M14 melanoma = tested on: M14 melanoma
M19-MEL melanoma = tested on: M19-MEL melanoma
SNB-78 CNS = tested on: SNB-78 CNS
CCRF-CEM leukemia = tested on: CCRF-CEM leukemia
CAKI-1 renal = tested on: CAKI-1 renal
EKVX NSCLC = tested on: EKVX NSCLC
NCI-H226 lung = tested on: NCI-H226 lung
SN12C renal = tested on: SN12C renal
OVCAR-4 ovarian = tested on: OVCAR-4 ovarian
UACC-257 melanoma = tested on: UACC-257 melanoma
RPMI-8226 leukemia = tested on: RPMI-8226 leukemia
SK-MEL-2 melanoma = tested on: SK-MEL-2 melanoma
HOP-62 NSCLC = tested on: HOP-62 NSCLC
NCI-H522 lung = tested on: NCI-H522 lung
HCT-15 colon = tested on: HCT-15 colon
SF-539 CNS = tested on: SF-539 CNS
OVCAR-8 ovarian = tested on: OVCAR-8 ovarian
MALME-3M melanoma = tested on: MALME-3M melanoma
SK-MEL-5 melanoma = tested on: SK-MEL-5 melanoma
A549 NSCLC = tested on: A549 NSCLC
LOX IMVI melanoma = tested on: LOX IMVI melanoma
SF-295 CNS = tested on: SF-295 CNS
DMS 114 small cell lung = tested on: DMS 114 small cell lung
HOP-92 NSCLC = tested on: HOP-92 NSCLC
SNB-19 CNS = tested on: SNB-19 CNS
DMS 273 small cell lung = tested on: DMS 273 small cell lung
KM20L2 colon = tested on: KM20L2 colon
RXF-631 renal = tested on: RXF-631 renal
U251 CNS = tested on: U251 CNS
COLO 205 colon = tested on: COLO 205 colon
HT29 colon = tested on: HT29 colon
DLD-1 colon = tested on: DLD-1 colon
UACC-62 melanoma = tested on: UACC-62 melanoma
HCC-2998 colon = tested on: HCC-2998 colon
IGROV1 ovarian = tested on: IGROV1 ovarian
SR leukemia = tested on: SR leukemia
XF 498 CNS = tested on: XF 498 CNS
A498 renal = tested on: A498 renal

Molecule `Cc1ccc(S(=O)(=O)OC2CSSCC2OS(=O)(=O)c2ccc(C)cc2)cc1` (centres undefined) has a TGI (NCI-H460 lung) of 31.8 µM, a TGI (OVCAR-5 ovarian) of 38 µM and a TGI (SK-OV-3 ovarian) of 38.4 µM. The TGI (HL-60(TB) leukemia) was 22 µM, the TGI (OVCAR-3 ovarian) was 26.2 µM and the TGI (SNB-75 CNS) was 28.1 µM. For the same molecule, the TGI (MOLT-4 leukemia) was 7.61 µM, the TGI (SW-620 colon) was 29.6 µM and the TGI (RXF 393 renal) was 37.7 µM. The TGI (LXFL 529 NSCLC) was 23.6 µM, the TGI (SK-MEL-28 melanoma) was 30.3 µM and the TGI (SF-268 CNS) was 31.9 µM. For the same molecule, the TGI (TK-10 renal) was 28.9 µM, the TGI (786-0 renal) was 25.1 µM and the TGI (HCT-116 colon) was 26 µM. The TGI (K-562 leukemia) was 47.6 µM, the TGI (UO-31 renal) was 28.5 µM and the TGI (KM12 colon) was 28.3 µM. It also gave a TGI (NCI-H23 lung) of 33.3 µM, a TGI (ACHN renal) of 28.9 µM and a TGI (HOP-18 NSCLC) of 31.1 µM. The TGI (M14 melanoma) was 25.1 µM, the TGI (M19-MEL melanoma) was 26.3 µM and the TGI (SNB-78 CNS) was 37 µM. The TGI (CCRF-CEM leukemia) was 28.3 µM, the TGI (CAKI-1 renal) was 26.1 µM and the TGI (EKVX NSCLC) was 50 µM. For the same molecule, the TGI (NCI-H226 lung) was 33.6 µM, the TGI (SN12C renal) was 24 µM and the TGI (OVCAR-4 ovarian) was 23.3 µM. It also gave a TGI (UACC-257 melanoma) of 22.8 µM, a TGI (RPMI-8226 leukemia) of 46.3 µM and a TGI (SK-MEL-2 melanoma) of 29.1 µM. It also gave a TGI (HOP-62 NSCLC) of 43.2 µM, a TGI (NCI-H522 lung) of 22.8 µM and a TGI (HCT-15 colon) of 22.5 µM. The TGI (SF-539 CNS) was 22.8 µM, the TGI (OVCAR-8 ovarian) was 26.1 µM and the TGI (MALME-3M melanoma) was 34.3 µM. For the same molecule, the TGI (SK-MEL-5 melanoma) was 29.7 µM, the TGI (A549 NSCLC) was 31.9 µM and the TGI (LOX IMVI melanoma) was 28.5 µM. It also gave a TGI (SF-295 CNS) of 30.5 µM, a TGI (DMS 114 small cell lung) of 26.4 µM and a TGI (HOP-92 NSCLC) of 23.7 µM. It also gave a TGI (SNB-19 CNS) of 31.7 µM, a TGI (DMS 273 small cell lung) of 21.8 µM and a TGI (KM20L2 colon) of 30.4 µM. It also gave a TGI (RXF-631 renal) of 26.5 µM, a TGI (U251 CNS) of 27.2 µM and a TGI (COLO 205 colon) of 26.6 µM. For the same molecule, the TGI (HT29 colon) was 22 µM, the TGI (DLD-1 colon) was 24.7 µM and the TGI (UACC-62 melanoma) was 24.6 µM. The TGI (HCC-2998 colon) was 35.5 µM, the TGI (IGROV1 ovarian) was 32.9 µM and the TGI (SR leukemia) was 38.8 µM.
Work on `COc1cc([C@@H]2c3cc4c(cc3[C@@H](NC(=O)c3ccc(OC(C)=O)cc3)C3COC(=O)[C@@H]32)OCO4)cc(OC)c1O` (some centres undefined) yielded a TGI (OVCAR-5 ovarian) of 22.4 µM, a TGI (SK-OV-3 ovarian) of 7.88 µM and a TGI (HL-60(TB) leukemia) of 0.688 µM. For the same molecule, the TGI (OVCAR-3 ovarian) was 22.3 µM, the TGI (SNB-75 CNS) was 5.86 µM and the TGI (MOLT-4 leukemia) was 2.93 µM. It also gave a TGI (SW-620 colon) of 15 µM, a TGI (RXF 393 renal) of 36.3 µM and a TGI (LXFL 529 NSCLC) of 44.2 µM. It also gave a TGI (SK-MEL-28 melanoma) of 23.5 µM, a TGI (SF-268 CNS) of over 100 µM and a TGI (TK-10 renal) of 30.8 µM. For the same molecule, the TGI (786-0 renal) was 3.47 µM, the TGI (HCT-116 colon) was 15.3 µM and the TGI (K-562 leukemia) was 47.2 µM. For the same molecule, the TGI (UO-31 renal) was 30.6 µM, the TGI (KM12 colon) was 11.9 µM and the TGI (NCI-H23 lung) was 3.31 µM. For the same molecule, the TGI (ACHN renal) was 3.16 µM, the TGI (HOP-18 NSCLC) was over 100 µM and the TGI (M14 melanoma) was 9.22 µM. For the same molecule, the TGI (M19-MEL melanoma) was 40.1 µM, the TGI (SNB-78 CNS) was over 100 µM and the TGI (XF 498 CNS) was 6.96 µM. The TGI (CCRF-CEM leukemia) was over 100 µM, the TGI (CAKI-1 renal) was 15.8 µM and the TGI (EKVX NSCLC) was 21.2 µM. The TGI (NCI-H226 lung) was 4.46 µM, the TGI (SN12C renal) was 4.05 µM and the TGI (OVCAR-4 ovarian) was over 100 µM. It also gave a TGI (UACC-257 melanoma) of 31.9 µM, a TGI (RPMI-8226 leukemia) of 13.2 µM and a TGI (SK-MEL-2 melanoma) of 16.6 µM. The TGI (HOP-62 NSCLC) was 3.12 µM, the TGI (NCI-H522 lung) was 4.37 µM and the TGI (HCT-15 colon) was 24.4 µM. The TGI (SF-539 CNS) was 3.14 µM, the TGI (OVCAR-8 ovarian) was 18.5 µM and the TGI (MALME-3M melanoma) was 11.1 µM. It also gave a TGI (SK-MEL-5 melanoma) of 13.2 µM, a TGI (A549 NSCLC) of 10.6 µM and a TGI (LOX IMVI melanoma) of 10.1 µM. The TGI (SF-295 CNS) was 50.9 µM, the TGI (DMS 114 small cell lung) was 5.38 µM and the TGI (HOP-92 NSCLC) was 7.05 µM. It also gave a TGI (SNB-19 CNS) of over 100 µM, a TGI (DMS 273 small cell lung) of 12.4 µM and a TGI (KM20L2 colon) of 12.7 µM. It also gave a TGI (RXF-631 renal) of 17.3 µM, a TGI (U251 CNS) of 2.75 µM and a TGI (COLO 205 colon) of 35.7 µM. The TGI (HT29 colon) was 29.5 µM, the TGI (DLD-1 colon) was 26 µM and the TGI (UACC-62 melanoma) was 3.14 µM. For the same molecule, the TGI (A498 renal) was 8.75 µM, the TGI (HCC-2998 colon) was 14.7 µM and the TGI (IGROV1 ovarian) was 7.77 µM.
